The values below are quoted from earlier work in patent US9549940B2, “Sustained-release formulations of topiramate” (Supernus Pharmaceuticals, Inc., priority 2006, dated 2017).

For data set [1] the following is noted: oral administration of an immediate release dosage form.
For data set [2] the following is noted: room temperature.

For the compound `CC1(C)OC2[C@@H](CO[C@@]3(COS(N)(=O)=O)OC(C)(C)O[C@@H]23)O1` (stereo partly drawn) [topiramate, 2,3:4,5-Di-O-isopropylidene-beta-D-fructopyranose sulfamate], the “time of plasma drug concentration peak” value in data set [1] is “approximately 2 hours”. Also, the “solubility of topiramate in water” value in data set [2] is listed as “about 9.8 mg/ml”.
